From US20040049075A1, “Process for the production of calcium pantothenate” (priority 2000, published 2004) come the findings set out here.

The data set is described as follows: Moisture absorption test. In kind it is physicochemical. Particulars: 40° C. and 75% RH; nonhygroscopic defined in b24 as moisture absorption 2% or less after 24 hours. The source says:
The term “crystalline” used in the specification encompasses a substance containing a small amount of an amorphous part, as well as a substance substantially consisting completely of crystals. However, calcium pantothenate in a completely amorphous state (the state which gives substantially no detectable peak by the powder X-ray diffraction analysis) is excluded. The term “crystalline” should not be interpreted to exclude a substance containing a small amount of an amorphous part. Further, the term “amorphous” means a state in which no peak is substantially detectable by powder X-ray diffraction analysis. The term “nonhygroscopic” used in the specification means that a moisture absorption amount is 2% or less, preferably 1% or less, after 24 hours at 40° C. under a relative humidity of 75%. A moisture absorption test was performed under conditions of 40° C. and 75% RH for the PC consisting of α-form crystals obtained in Example 1 and the PC consisting of β-form crystals obtained in Example 7. A similar test was performed for the amorphous PC used in Example 1 as a control.

For “monocalcium bis[(R)-N-(2,4-dihydroxy-3,3-dimethylbutyryl)-β-alaninate]”, the “hygroscopicity (verdict of moisture absorption test)” value was “nonhygroscopic”.
